# Assay results taken from patent US20240295545A1, “GLIOMA THERAPY” (Imperial College Innovations Limited, priority 2021, published 2024).
# Entries after “also recorded” stand apart in the source; their conditions may differ.
# Tests used:
# [1] = molecular target: T1, mitochondrial F1Fo ATP Synthase c-subunit leak channel (Sus scrofa, UniProt A1XQS5); assay: ACMA assay (H+ leak in submitochondrial vesicles); type: biochemical, pig; conditions: negative control; swine brain SMVs
# T1 construct: isolated swine brain submitochondrial vesicles (SMVs), which are enriched for the F1Fo ATP synthase; from tissue; host or cells: pig (swine) brain, submitochondrial vesicles
# T1 sequence (A1XQS5 62-136): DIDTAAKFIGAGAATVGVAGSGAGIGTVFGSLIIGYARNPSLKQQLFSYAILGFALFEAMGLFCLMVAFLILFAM
# Description: ACMA assay buffer (concentrations used throughout the assay):
# ACMA solution: • Stock solution of 1 mg/ml (3.87 mM) ACMA in 100% ethanol • Diluted to working solution (3 μM) in assay buffer • Aliquots of 10 μL to be added to wells
# • 1. Sub-mitochondrial vesicles (SMVs) isolated from pig brains were thawed and prepared to 0.17 μg/μL in ACMA assay buffer. • 2. Drug solutions were added to 386-well plates at a final concentration of 10 μM. • 3. Sub-mitochondrial vesicles (SMVs), isolated from pig brains, were thawed and prepared to 0.17 μg/μL in ACMA assay buffer. 30 μL of this solution (containing 5 μg of polypeptide, as measured via the QuickStart Bradford Protein Assay (Bio-Rad, UK)) was added to each well. • 4. Stock solution of 1 mg/ml (3.87 mM) ACMA (9-amino-6-chloro-2-methoxyacridine) were diluted to working solution 3 μM in assay buffer. Aliquots of 10 μL were added to each well (final concentration of 0.75 μM). • 5. The samples were mixed and incubated at room temperature for 20 mins. • 6. The ACMA fluorescence was measured at 1 min intervals using a Tecan Infinite M200 plate reader—excitation 412 nm, emission 480 nm. • 7. […] Fluorescence was measured quickly after addition of ATP for another 7 mins (1 min intervals). […]
# GBM1 cells = assay: Glioma suppression assay (SRB proliferation); type: cell-based, human; conditions: in vitro; FIG. 4D
# Description: • 1. Without removing the cell culture medium, gently add 50% cold TCA to each well (the final concentration of TCA should be 10%), and incubate the plates at 4° C. for 1 h. For 150 μL medium volume in each well, add 30 μL of 50% TCA. • 2. Wash the plates 4 times with slow-running tap water. Then allow the plates to air-dry at RT. After fixing and drying, the plates can be stored indefinitely at RT. • 3. Add 0.4% SRB solution to each well (e.g. 80 μL/well). Leave at room temperature for 1 h (no shaking) and then quickly rinse the plates 4 times with 1% acetic acid to remove unbound dye. Then allow the plates to dry at RT. Stained and dried plates can be stored indefinitely at RT. • 4. Add 10 mM Tris base solution to each well (e.g. 80 μL/well) and shake the plate for 5 min to solubilize the protein-bound dye. Alternatively, if a shaker is not available, SRB can be solubilized after 30 min in 10 mM Tris base solution. • 5. Measure the OD at […] in a microplate reader. The suboptimal wavelengths should be 490-530 nm.
# 1000 Grade IV cells (cell line 1 in FIG. 2) were plated in cell culture medium (10% FBS in DMEM) per each well in 96-well plates. On day 1, the cells were treated with 10 μM of the indicated drugs and incubated at 37° C. for 5 days. SRB assay was performed prior to addition of the drugs and after 5 days. The values were normalized against those of the control (untreated cultures). […]
# Grade IV (GBM) cells = assay: Proliferation of primary tumour cells incubated with mitochondrial toxins, GBM; type: cell-based, human; conditions: rotenone 100 nM, oligomycin 50 nM, UK5099 10 μM; hypoxia and normoxia; FIG. 1B
# Description: (§1) The cell lines employed were low-passage lines, derived from tumour tissue. The cells were obtained from tumour tissue of a highly proliferative glioma (which was a grade IV/glioblastoma multiforme glioma). For comparison, cells were also obtained from a tumour tissue of a comparatively slow-growing glioma (which was a grade III glioma).
# (§2) The inventors compared the metabolic and mitochondrial energetic profile of slow-growing glioma/astrocytoma cells (chosen in particular due to their relatively slow growth rate) to that in cells of a highly proliferative glioma primary tumour cells by performing ‘hypoxia’ experiments with primary tumour cells, in which primary tumour cells were deprived of adequate oxygen supply and compared with control cells not so deprived (‘normoxia’). […] The slow growing cells were selected from a grade III glioma, and the highly proliferative cells were chosen from a grade IV glioma i.e. glioblastoma multiforme cells.
# (§3) To further investigate this, primary tumour cells were incubated (both under hypoxia and normoxia) with the toxins rotenone (100 nM), oligomycin (50 nM), a combination of rotenone and oligomycin (100 nM and 50 nM, respectively) or UK5099 (10 μM).
# [2] = tested on: grade III astrocytoma cells; assay: Proliferation of primary tumour cells incubated with mitochondrial toxins, grade III; type: cell-based, human; conditions: rotenone 100 nM, oligomycin 50 nM, UK5099 10 μM; hypoxia and normoxia; FIG. 1B
# Description: as §1, §2, §3
Structure (SMILES),ATP response in ACMA assay [1],effect on proliferation of GBM1 cell line (highest rate of proliferation) (GBM1 cells),effect on proliferation of GBM cells (Grade IV (GBM) cells),effect on proliferation of grade III astrocytoma cells [2]
"N#CC(C#N)=NNc1ccc(OC(F)(F)F)cc1 [FCCP, carbonylcyanide p-trifluoromethoxyphenylhydrazone]",attenuated,–,–,–
"Cn1nnc2c(C(N)=O)ncn2c1=O [TMZ, temozolomide]",–,no effect,–,–
N#C/C(=C\c1cn(-c2ccccc2)c2ccccc12)C(=O)O [UK5099],–,–,decreases the proliferation; also recorded: impeded the proliferation,without a significant effect
CC[C@H]1/C=C/C=C/C[C@@H](C)[C@H](O)[C@@](C)(O)C(=O)[C@@H](C)[C@H](O)[C@@H](C)C(=O)[C@@H](C)[C@H](O)[C@@H](C)/C=C/C(=O)O[C@@H]2[C@H](C)[C@H](CC1)O[C@]1(CC[C@H](C)[C@H](C[C@@H](C)O)O1)[C@H]2C [oligomycin],attenuated,–,decreases the proliferation; also recorded: impeded the proliferation,without a significant effect
C=C(C)[C@H]1Cc2c(ccc3c2O[C@@H]2COc4cc(OC)c(OC)cc4[C@@H]2C3=O)O1 [rotenone],–,–,decreases the proliferation; also recorded: impeded the proliferation,without a significant effect
